Results published in the NIST ThermoML archive (doi:10.1016/j.tca.2016.03.009).
Numbers after ± are expanded uncertainties.

How the values were obtained:
[1] = DSC
[2] = Molar enthalpy of transition or fusion; settings: DSC

With `CCCCOc1cc2c3cc(OCCCC)c(OCCCC)cc3c3cc(OCCCC)c(OCCCC)cc3c2cc1OCCCC` [2,3,6,7,10,11-hexabutoxytriphenylene] the Triple point temperature ([1]; Crystal) was 360.35 ± 1 K, the Triple point temperature ([1]; Liquid crystal of unknown type) was 417.95 ± 1 K and the “Molar enthalpy of transition or fusion” value ([2]; Crystal) was 5.4 ± 0.174 kcal/mol. The “Molar enthalpy of transition or fusion” value ([2]; Liquid crystal of unknown type) was 4.47 ± 0.141 kcal/mol.
